Laboratory results taken from PubChem BioAssay (NCI).
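Results reflect a 48-hour exposure of cells in 96-well plates to compound at five concentrations. The concentration for 50% growth inhibition is given as GI50. TGI: concentration producing complete growth inhibition.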

Experiments:
Experiment in all cases: NCI anticancer screen, dose series, 48 h
M14 melanoma = system: M14 melanoma
SNB-19 CNS = system: SNB-19 CNS
SR leukemia = system: SR leukemia
HCC-2998 colon = system: HCC-2998 colon
OVCAR-8 ovarian = system: OVCAR-8 ovarian
MALME-3M melanoma = system: MALME-3M melanoma
HCT-15 colon = system: HCT-15 colon
MDA-MB-435 = system: MDA-MB-435
MCF7 breast = system: MCF7 breast
ACHN renal = system: ACHN renal
HT29 colon = system: HT29 colon
RXF 393 renal = system: RXF 393 renal
DU-145 prostate = system: DU-145 prostate
SF-295 CNS = system: SF-295 CNS
RPMI-8226 leukemia = system: RPMI-8226 leukemia
KM12 colon = system: KM12 colon
HCT-116 colon = system: HCT-116 colon
HS 578T breast = system: HS 578T breast
UACC-257 melanoma = system: UACC-257 melanoma
U251 CNS = system: U251 CNS
SF-539 CNS = system: SF-539 CNS
MDA-MB-231 breast = system: MDA-MB-231 breast
NCI-H226 lung = system: NCI-H226 lung
TK-10 renal = system: TK-10 renal
SK-MEL-2 melanoma = system: SK-MEL-2 melanoma
SK-MEL-5 melanoma = system: SK-MEL-5 melanoma
OVCAR-4 ovarian = system: OVCAR-4 ovarian
NCI-H460 lung = system: NCI-H460 lung
NCI-H23 lung = system: NCI-H23 lung
IGROV1 ovarian = system: IGROV1 ovarian
OVCAR-5 ovarian = system: OVCAR-5 ovarian
UO-31 renal = system: UO-31 renal
HL-60(TB) leukemia = system: HL-60(TB) leukemia
CAKI-1 renal = system: CAKI-1 renal
NCI-H522 lung = system: NCI-H522 lung
SF-268 CNS = system: SF-268 CNS
OVCAR-3 ovarian = system: OVCAR-3 ovarian
CCRF-CEM leukemia = system: CCRF-CEM leukemia
BT-549 breast = system: BT-549 breast
HOP-62 NSCLC = system: HOP-62 NSCLC
HOP-92 NSCLC = system: HOP-92 NSCLC
SK-MEL-28 melanoma = system: SK-MEL-28 melanoma
SK-OV-3 ovarian = system: SK-OV-3 ovarian
LOX IMVI melanoma = system: LOX IMVI melanoma
SNB-75 CNS = system: SNB-75 CNS
NCI/ADR-RES ovarian = system: NCI/ADR-RES ovarian
EKVX NSCLC = system: EKVX NSCLC
A549 NSCLC = system: A549 NSCLC
MOLT-4 leukemia = system: MOLT-4 leukemia
COLO 205 colon = system: COLO 205 colon
SW-620 colon = system: SW-620 colon
A498 renal = system: A498 renal
T-47D breast = system: T-47D breast
K-562 leukemia = system: K-562 leukemia
UACC-62 melanoma = system: UACC-62 melanoma
PC-3 prostate = system: PC-3 prostate
SN12C renal = system: SN12C renal
786-0 renal = system: 786-0 renal

## COc1ccc(/C=C/C2C(C#N)=C(N)OC3=C2C(=O)CCC3)cc1 (centres undefined)
M14 melanoma
  GI50: 20.8 µM
  TGI: 49.6 µM
SNB-19 CNS
  GI50: 19.8 µM
  TGI: 43.1 µM
SR leukemia
  GI50: 2710 nM
  TGI: 16 µM
HCC-2998 colon
  GI50: 18.2 µM
  TGI: 32.9 µM
OVCAR-8 ovarian
  GI50: 21.2 µM
  TGI: > 100 µM
MALME-3M melanoma
  GI50: 31.9 µM
  TGI: 87.1 µM
HCT-15 colon
  GI50: 21.4 µM
  TGI: > 100 µM
MDA-MB-435
  GI50: 18.4 µM
  TGI: 61.3 µM
MCF7 breast
  GI50: 12.1 µM
  TGI: 26.4 µM
ACHN renal
  GI50: 17.7 µM
  TGI: 33.7 µM
HT29 colon
  GI50: 7.9 µM
  TGI: 20.2 µM
RXF 393 renal
  GI50: 18.7 µM
  TGI: 35.9 µM
DU-145 prostate
  GI50: 15.9 µM
  TGI: 33.7 µM
SF-295 CNS
  GI50: 21.5 µM
  TGI: 50.1 µM
RPMI-8226 leukemia
  GI50: 2.14 µM
  TGI: 5.18 µM
KM12 colon
  GI50: 13.5 µM
  TGI: 28.6 µM
HCT-116 colon
  GI50: 7.39 µM
  TGI: 20 µM
HS 578T breast
  GI50: 63 µM
  TGI: > 100 µM
UACC-257 melanoma
  GI50: 23 µM
  TGI: 49.5 µM
U251 CNS
  GI50: 12.5 µM
  TGI: 25 µM
SF-539 CNS
  GI50: 31.3 µM
  TGI: 80.1 µM
MDA-MB-231 breast
  GI50: 2.54 µM
  TGI: 8.79 µM
NCI-H226 lung
  GI50: 15 µM
  TGI: 34 µM
TK-10 renal
  GI50: 26.9 µM
  TGI: 63.8 µM
SK-MEL-2 melanoma
  GI50: 38.5 µM
  TGI: > 100 µM
SK-MEL-5 melanoma
  GI50: 18.1 µM
  TGI: 32.8 µM
OVCAR-4 ovarian
  GI50: 22.8 µM
  TGI: 66.5 µM
NCI-H460 lung
  GI50: 16.9 µM
  TGI: 35 µM
NCI-H23 lung
  GI50: 20.1 µM
  TGI: 47.7 µM
IGROV1 ovarian
  GI50: 22 µM
  TGI: 41.3 µM
OVCAR-5 ovarian
  GI50: 18.8 µM
  TGI: 34.5 µM
UO-31 renal
  GI50: 18.2 µM
  TGI: 33.1 µM
HL-60(TB) leukemia
  GI50: 5.28 µM
  TGI: 63.2 µM
CAKI-1 renal
  GI50: 40.8 µM
  TGI: 97.3 µM
NCI-H522 lung
  GI50: 18.3 µM
  TGI: 38.9 µM
SF-268 CNS
  GI50: 13.8 µM
  TGI: 30.5 µM
OVCAR-3 ovarian
  GI50: 34 µM
  TGI: > 100 µM
CCRF-CEM leukemia
  GI50: 4.05 µM
  TGI: 16.6 µM
BT-549 breast
  GI50: 31.9 µM
  TGI: > 100 µM
HOP-62 NSCLC
  GI50: 29.6 µM
  TGI: 62.7 µM
HOP-92 NSCLC
  GI50: 23.6 µM
  TGI: 46.9 µM
SK-MEL-28 melanoma
  GI50: 17.9 µM
  TGI: 35.3 µM
SK-OV-3 ovarian
  GI50: 25.1 µM
  TGI: 77.6 µM
LOX IMVI melanoma
  GI50: 11.4 µM
  TGI: 23.4 µM
SNB-75 CNS
  GI50: 19.9 µM
  TGI: 37.4 µM
NCI/ADR-RES ovarian
  GI50: 33.9 µM
  TGI: > 100 µM
EKVX NSCLC
  GI50: 38 µM
  TGI: > 100 µM
A549 NSCLC
  GI50: 32.4 µM
  TGI: 97 µM
MOLT-4 leukemia
  GI50: 4.23 µM
  TGI: 19.7 µM
COLO 205 colon
  GI50: 21.1 µM
  TGI: 41.2 µM
SW-620 colon
  GI50: 29.7 µM
  TGI: > 100 µM
A498 renal
  GI50: 22.6 µM
  TGI: 41 µM
T-47D breast
  GI50: 29.4 µM
  TGI: > 100 µM
K-562 leukemia
  GI50: 24.4 µM
  TGI: > 100 µM

## O=C(CN(/C=C/C(=O)C(F)(F)F)c1ccc(Cl)cc1)c1ccc(F)cc1
SNB-19 CNS
  GI50: 16.2 µM
  TGI: 34.2 µM
UACC-62 melanoma
  GI50: 3.04 µM
  TGI: 15.2 µM
HCC-2998 colon
  GI50: 12.9 µM
  TGI: 25.7 µM
OVCAR-8 ovarian
  GI50: 15.2 µM
  TGI: 38.4 µM
MALME-3M melanoma
  GI50: 13.7 µM
  TGI: 28.9 µM
HCT-15 colon
  GI50: 4.21 µM
  TGI: 21.4 µM
MDA-MB-435
  GI50: 12.1 µM
  TGI: 32.3 µM
MCF7 breast
  GI50: 14 µM
  TGI: 33.2 µM
ACHN renal
  GI50: 4.17 µM
  TGI: 27 µM
HT29 colon
  GI50: 17.9 µM
  TGI: > 100 µM
RXF 393 renal
  GI50: 42.9 µM
  TGI: > 100 µM
DU-145 prostate
  GI50: 16.1 µM
  TGI: 40.8 µM
SF-295 CNS
  GI50: 15.2 µM
  TGI: 34.1 µM
RPMI-8226 leukemia
  GI50: 10.1 µM
  TGI: 51.3 µM
KM12 colon
  GI50: 5.61 µM
  TGI: 22.7 µM
PC-3 prostate
  GI50: 11.8 µM
  TGI: 25.9 µM
SN12C renal
  GI50: 16.1 µM
  TGI: 29.6 µM
HCT-116 colon
  GI50: 14.5 µM
  TGI: 52.3 µM
HS 578T breast
  GI50: 4.95 µM
  TGI: 9.71 µM
UACC-257 melanoma
  GI50: 12.8 µM
  TGI: 29.9 µM
U251 CNS
  GI50: 11 µM
  TGI: 23 µM
SF-539 CNS
  GI50: 18.9 µM
  TGI: 37.6 µM
MDA-MB-231 breast
  GI50: 14.2 µM
  TGI: 27.3 µM
NCI-H226 lung
  GI50: 16.2 µM
  TGI: 30.7 µM
TK-10 renal
  GI50: 18.9 µM
  TGI: 74 µM
SK-MEL-2 melanoma
  GI50: 8.75 µM
  TGI: 21.4 µM
SK-MEL-5 melanoma
  GI50: 14.6 µM
  TGI: 27.8 µM
OVCAR-4 ovarian
  GI50: 15.5 µM
  TGI: 38 µM
NCI-H460 lung
  GI50: 11.9 µM
  TGI: 26.3 µM
NCI-H23 lung
  GI50: 12.9 µM
  TGI: 26.2 µM
IGROV1 ovarian
  GI50: 12.5 µM
  TGI: 26.2 µM
OVCAR-5 ovarian
  GI50: 23.6 µM
  TGI: 53.5 µM
UO-31 renal
  GI50: 10.9 µM
  TGI: 23.3 µM
CAKI-1 renal
  GI50: 10.4 µM
  TGI: 32.7 µM
NCI-H522 lung
  GI50: 3.6 µM
  TGI: 17.4 µM
SF-268 CNS
  GI50: 12.3 µM
  TGI: 30 µM
OVCAR-3 ovarian
  GI50: 13 µM
  TGI: 28.2 µM
CCRF-CEM leukemia
  GI50: 3.39 µM
  TGI: 19.8 µM
BT-549 breast
  GI50: 15.1 µM
  TGI: 35.3 µM
HOP-62 NSCLC
  GI50: 30.3 µM
  TGI: > 100 µM
HOP-92 NSCLC
  GI50: 18 µM
  TGI: 36.8 µM
SK-MEL-28 melanoma
  GI50: 16.5 µM
  TGI: 36.4 µM
SK-OV-3 ovarian
  GI50: 31.5 µM
  TGI: 91.1 µM
LOX IMVI melanoma
  GI50: 0.736 µM
  TGI: 16.9 µM
NCI/ADR-RES ovarian
  GI50: 14.4 µM
  TGI: 31.7 µM
EKVX NSCLC
  GI50: 19.2 µM
  TGI: 43.6 µM
A549 NSCLC
  GI50: 18.7 µM
  TGI: 81.1 µM
MOLT-4 leukemia
  GI50: 5.59 µM
  TGI: 28.4 µM
COLO 205 colon
  GI50: 17.2 µM
  TGI: 46.5 µM
786-0 renal
  GI50: 18 µM
  TGI: 42.3 µM
SW-620 colon
  GI50: 15.1 µM
  TGI: 32.7 µM
T-47D breast
  GI50: 14.9 µM
  TGI: > 100 µM
K-562 leukemia
  GI50: 2.69 µM
  TGI: 22.2 µM
